Results: patent publication US8309557B2, “Pyrimidin-4-ylpropanedinitrile derivatives, processes for their preparation and their use as herbicides and plant growth regulators” (Bayer Intellectual Property GmbH, priority 2009, dated 2012)

Columns and labels:
Format in all cases: in vivo
Veronica persica [1] = test: Herbicidal effect post-emergence, VERPE
Method: (§1) Seeds of mono- and dicotyledonous weed plants and crop plants are planted in wood-fiber pots in sandy loam, covered with earth and grown in a greenhouse under good growth conditions. 2 to 3 weeks after sowing, the test plants are treated in the single-leaf stage. The compounds according to the invention, formulated in the form of wettable powders (WP) or as emulsion concentrates (EC), are then sprayed onto the green plant parts as aqueous suspension or emulsion using an application rate of 600 to 800 l of water/ha (converted) with the addition of 0.2% by weight of wetting agent. After the test plants had been in the greenhouse for ca. 3 weeks under optimum growth conditions, the effect of the preparations is scored visually in comparison with untreated controls (herbicidal effect in percent (%): 100% effect=plants have died off, 0% effect=as control plants).

Polygonum convolvulus = test: Herbicidal effect pre-emergence, POLCO; settings: 320 g/hectare, visual grading after 3 weeks vs untreated controls
From the text: (§2) Seeds of mono- and dicotyledonous weed plants and crop plants are planted in wood-fiber pots in sandy loam and covered with earth. The compounds according to the invention, formulated in the form of wettable powders (WP) or as emulsion concentrates (EC), are then applied to the surface of the covering earth as aqueous suspension or emulsion at an application rate corresponding to 320 g/hectare at an application rate of 600 to 800 l of water/ha (converted) with the addition of 0.2% wetting agent.
(§3) Following treatment, the pots are placed in a greenhouse and kept under good growth conditions for the test plants. The visual grading of the damage to the test plants is carried out after a test time of 3 weeks in comparison to untreated controls (herbicidal effect in percent (%): 100% effect=plants have died off, 0% effect=as control plants).

Abutilon theophrasti [2] = test: Herbicidal effect post-emergence, ABUTH
Method: as §1

Matricaria inodora = test: Herbicidal effect post-emergence, MATIN
Method: as §1

Veronica persica [3] = test: Herbicidal effect pre-emergence, VERPE; settings: 320 g/hectare, visual grading after 3 weeks vs untreated controls
From the text: as §2, §3

[4] = test system: Polygonum (Fallopia) convolvulus; test: Herbicidal effect post-emergence, POLCO
Method: as §1

Viola tricolor [5] = test: Herbicidal effect pre-emergence, VIOTR; settings: 320 g/hectare, visual grading after 3 weeks vs untreated controls
From the text: as §2, §3

Ipomoea purpurea [6] = test: Herbicidal effect pre-emergence, PHBPU; settings: 320 g/hectare, visual grading after 3 weeks vs untreated controls
From the text: as §2, §3

Echinochloa crus-galli [7] = test: Herbicidal effect post-emergence, ECHCG
Method: as §1

Amaranthus retroflexus [8] = test: Herbicidal effect post-emergence, AMARE
Method: as §1

Stellaria media [9] = test: Herbicidal effect post-emergence, STEME
Method: as §1

Ipomoea purpurea [10] = test: Herbicidal effect post-emergence, PHBPU
Method: as §1

[11] = test system: Tripleurospermum inodorum; test: Herbicidal effect pre-emergence, MATIN; settings: 320 g/hectare, visual grading after 3 weeks vs untreated controls
From the text: as §2, §3

Abutilon theophrasti [12] = test: Herbicidal effect pre-emergence, ABUTH; settings: for Effect in % in respect of stated plant, ABUTH: 320 g/hectare, visual grading after 3 weeks vs untreated controls
From the text: as §2, §3

Amaranthus retroflexus [13] = test: Herbicidal effect pre-emergence, AMARE; settings: for Effect in % in respect of stated plant, AMARE: 320 g/hectare, visual grading after 3 weeks vs untreated controls
From the text: as §2, §3

Viola tricolor [14] = test: Herbicidal effect post-emergence, VIOTR
Method: as §1

Lolium multiflorum = test: Herbicidal effect pre-emergence, LOLMU; settings: for Effect in % in respect of stated plant, LOLMU: 320 g/hectare, visual grading after 3 weeks vs untreated controls
From the text: as §2, §3

Setaria viridis [15] = test: Herbicidal effect pre-emergence, SETVI; settings: for Effect in % in respect of stated plant, SETVI: 320 g/hectare, visual grading after 3 weeks vs untreated controls
From the text: as §2, §3

Setaria viridis [16] = test: Herbicidal effect post-emergence, SETVI
Method: as §1

Alopecurus myosuroides = test: Herbicidal effect pre-emergence, ALOMY; settings: for Effect in % in respect of stated plant, ALOMY: 320 g/hectare, visual grading after 3 weeks vs untreated controls
From the text: as §2, §3

Stellaria media [17] = test: Herbicidal effect pre-emergence, STEME; settings: 0.32 kg of active substance per hectare, visual grading after 3 weeks
From the text: as §2, §3

Echinochloa crus-galli [18] = test: Herbicidal effect pre-emergence, ECHCG; settings: 0.32 kg of active substance per hectare, visual grading after 3 weeks
From the text: as §2, §3

Avena fatua = test: Herbicidal effect pre-emergence, Avena fatua; settings: 0.32 kg of active substance per hectare, visual grading after 3 weeks
From the text: as §2, §3

Sinapis alba = test: Herbicidal effect pre-emergence, Sinapis alba; settings: 0.32 kg of active substance per hectare, visual grading after 3 weeks
From the text: as §2, §3

[19] = 0.32 kg of active substance per hectare, visual grading after 3 weeks

Row | SMILES | Effect in % in respect of stated plant, VERPE (Veronica persica [1]) | Effect in % in respect of stated plant, ABUTH (Abutilon theophrasti [2]) | Effect in % in respect of stated plant, MATIN (Matricaria inodora) | Effect in % in respect of stated plant, VERPE (Veronica persica [3]) | Effect in % in respect of stated plant, POLCO [4] | Effect in % in respect of stated plant, VIOTR (Viola tricolor [5]) | Effect in % in respect of stated plant, PHBPU (Ipomoea purpurea [6]) | Effect in % in respect of stated plant, ECHCG (Echinochloa crus-galli [7]) | Effect in % in respect of stated plant, AMARE (Amaranthus retroflexus [8]) | Effect in % in respect of stated plant, STEME (Stellaria media [9]) | Effect in % in respect of stated plant, PHBPU (Ipomoea purpurea [10]) | Effect in % in respect of stated plant, MATIN [11] | Effect in % in respect of stated plant, ABUTH (Abutilon theophrasti [12]) | Effect in % in respect of stated plant, AMARE (Amaranthus retroflexus [13]) | Effect in % in respect of stated plant, VIOTR (Viola tricolor [14]) | Effect in % in respect of stated plant, SETVI (Setaria viridis [15]) | further results
1 | N.N#CC(C#N)c1nc(-c2ccc(C(F)(F)F)cc2)nc(N)c1Cl [Compound 318] | 90% | 80% | 90% | 100% | 80% | – | – | – | – | – | – | – | – | – | – | – | Effect in % in respect of stated plant, POLCO (Polygonum convolvulus): 80%
2 | N#CC(C#N)c1nc(C2CC2)nc(N)c1Cl [compound 249] | 100% | 83% | 90% | 90% | 90% | 95% | 85% | 90% | 93% | 80% | 90% | 90% | 90% | 90% | 87% | – | Effect in % in respect of stated plant, POLCO (Polygonum convolvulus): 90%
3 | CC(C)(C)c1nc(N)c(Cl)c(C(C#N)C#N)n1.N [compound 455] | – | – | – | – | – | 100% | – | – | – | – | – | – | – | – | – | – | Effect in % in respect of stated plant, LOLMU (Lolium multiflorum): 80%
4 | Cc1ccc(-c2nc(N)c(Cl)c(C(C#N)C#N)n2)c(F)c1F [compound 202] | – | 90% | 80% | 100% | 90% | – | 100% | 90% | 100% | – | – | – | – | 90% | – | – | –
5 | COc1c(Cl)ccc(-c2nc(N)c(Cl)c(C(C#N)C#N)n2)c1F.N [Compound 359] | – | 80% | 90% | 100% | 90% | – | – | 90% | 100% | – | 80% | 100% | 90% | 100% | – | 90% | Effect in % in respect of stated plant, LOLMU (Lolium multiflorum): 80%; Effect in % in respect of stated plant, SETVI (Setaria viridis [16]): 80%
6 | N.N#CC(C#N)c1nc(-c2ccc(Cl)cc2F)nc(N)c1Cl [Compound 345] | 90% | – | 90% | 100% | 80% | 80% | – | – | 100% | 90% | 90% | 80% | 90% | 90% | 80% | 80% | Effect in % in respect of stated plant, ALOMY (Alopecurus myosuroides): 80%
7 | Cc1ccc(-c2nc(N)c(Cl)c(C(C#N)C#N)n2)c(F)c1F.N [Compound 387] | 80% | 90% | – | 100% | 100% | – | – | 90% | 100% | – | – | – | – | – | – | – | Effect in % in respect of stated plant, ALOMY (Alopecurus myosuroides): 80%
8 | N#CC(C#N)c1nc(-c2ccc([N+](=O)[O-])cc2)nc(N)c1Cl [compound 9] | – | – | – | 80% | – | 90% | – | – | – | – | – | – | – | – | – | – | herbicidal effect (Stellaria media [17]): very good herbicidal effect; herbicidal effect (Echinochloa crus-galli [18]): very good herbicidal effect; herbicidal effect (Abutilon theophrasti [12]; [19]): very good herbicidal effect; herbicidal effect (Avena fatua): very good herbicidal effect; herbicidal effect (Setaria viridis [15]; [19]): very good herbicidal effect; herbicidal effect (Amaranthus retroflexus [13]; [19]): very good herbicidal effect; herbicidal effect (Alopecurus myosuroides; [19]): very good herbicidal effect; herbicidal effect (Sinapis alba): very good herbicidal effect; herbicidal effect (Lolium multiflorum; [19]): very good herbicidal effect
9 | N.N#CC(C#N)c1nc(-c2ccc(Cl)cc2)nc(N)c1Cl [Ex. No. 308, Ammonium [6-amino-5-chloro-2-(4-chlorophenyl)pyrimidin-4-yl](dicyano)methanide] | 97% | 93% | 93% | 100% | 100% | 100% | 95% | 88% | 100% | 92% | 90% | 90% | 80% | 100% | 88% | 90% | Effect in % in respect of stated plant, POLCO (Polygonum convolvulus): 90%; Effect in % in respect of stated plant, ALOMY (Alopecurus myosuroides): 80%; Effect in % in respect of stated plant, SETVI (Setaria viridis [16]): 87%
10 | N#CC(C#N)c1nc(-c2ccc(Br)cc2F)nc(N)c1Cl [compound 208] | 90% | 90% | 100% | 100% | 80% | – | – | – | 100% | 90% | 80% | – | 100% | 80% | 90% | 90% | –
11 | N#CC(C#N)c1nc(C2CC2)nc(N)c1F [compound 248] | 90% | – | 80% | 90% | – | – | 80% | – | 80% | 80% | – | 80% | – | – | – | – | –
